Consider three molecules from paper PMC6814738, “Bacterial MgrB peptide activates chemoreceptor Fpr3 in mouse accessory olfactory system and drives avoidance behaviour” (Nature Communications, 2019).

Peptide text beside a SMILES is read from it. * marks the point of attachment. For = O=C*

Assay [1] deals with T1, mouse Fpr3 (Fpr-rs1) (Mus musculus, UniProt O08790).
T1 construct: expressed in transfected cells; host or cells: HEK293T (DSMZ # ACC-635), transient transfection with jetPEI
T1 sequence (O08790 1-351): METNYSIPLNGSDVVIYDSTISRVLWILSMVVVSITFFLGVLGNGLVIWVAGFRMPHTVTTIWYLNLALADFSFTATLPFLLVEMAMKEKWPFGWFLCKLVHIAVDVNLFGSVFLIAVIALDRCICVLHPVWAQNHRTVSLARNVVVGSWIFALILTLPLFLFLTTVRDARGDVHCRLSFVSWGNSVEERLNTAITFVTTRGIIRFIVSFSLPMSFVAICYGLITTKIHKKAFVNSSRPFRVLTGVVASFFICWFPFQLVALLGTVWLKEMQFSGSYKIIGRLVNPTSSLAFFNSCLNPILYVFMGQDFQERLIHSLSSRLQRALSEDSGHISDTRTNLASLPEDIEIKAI
In words: Heterologous expression / high-throughput Ca2+ imaging agonist screen and sequence selectivity of Fpr3 (Fig. 1a, 2c-e, 2g, 2i). It is filed as cell-based. Conditions: 10 µM; Fpr3-transfected HEK293T; Fig. 2g. As to the method:
(§1) An Fpr3 gene subcloned from genomic DNA of C57BL/6J mice into pcDNA3.1 (Invitrogen) was used in heterologous experiments[21],[80]. HEK293T (DSMZ # ACC-635) cells were seeded at 20–30% confluence on poly-D-lysine-coated (10 µg/ml in PBS) black 96-well µCLEAR-Plates (Greiner Bio-One). Cells were transfected 24 h later using jetPEI™ (Polyplus-transfection SA) according to the manufacturer’s protocol for 96-well transfections. For Ca^2+ imaging experiments, 0.125 µg of DNA plasmid encoding Fpr3 were cotransfected with equal amounts of a plasmid encoding Gα16, a promiscuous G protein α-subunit. Ca^2+ signals to agonist stimulation were recorded 48 h post transfection using the Ca^2+ indicator dye Fluo-4/AM (Molecular Probes) and a fluorescence imaging plate reader (FLIPR) system (Molecular Devices). Cotransfection of a plasmid encoding Gα16 with an empty vector used to subclone Fpr3 gave no agonist-evoked Ca^2+ responses.
We used custom-made peptides with a length of 6–21 amino acids to screen for agonists. Sequences of fMet peptides were designed according to motifs present at the N-termini of 15,125 specific bacterial proteins as annotated in UniProt. Peptides were chemically synthesised, purified, and verified by mass spectroscopy (MALDI-TOF) by commercial suppliers. Purity of all peptides was >95%. Source, sequence and purity of each peptide are listed in Supplementary Data 1. Lyophilised peptides were routinely dissolved in the Ca^2+ imaging assay buffer C1 (130 mM NaCl, 10 mM HEPES, 5 mM KCl, 2 mM CaCl2, 5 mM glucose, pH 7.2) as 0.2–1 mM stock solutions and kept in small aliquots at −20 °C until use. […] The sequences of these peptides exist in proteins from the following bacterial strains[21]: Psychromonas ingrahamii that belongs to a marine ice water microbial community, Desulfotomaculum reducens that is found in deep freshwater lakes, and Pseudomonas grimontii, a plant pathogen. As mice are unlikely to encounter these strains in their natural habitat, these findings are probably not of biological relevance.

In assay [2] the target is T1, mouse Fpr3 (Fpr-rs1). In words: Concentration-response Ca2+ imaging of Fpr3-transfected HEK293T cells (Fig. 2f, h, j). The format is cell-based. The conditions noted are these: for EC50: Ca2+ responses of Fpr3-transfected HEK293T, Fluo-4/AM, FLIPR, buffer C1 pH 7.2, Fig. 2f, h, j. As to the method:
as §1, with “Devices).” for “Devices). Cotransfection of a plasmid encoding Gα16 with an empty vector used to subclone Fpr3 gave no agonist-evoked Ca^2+ responses.”
We used custom-made peptides with a length of 6–21 amino acids to screen for agonists. Sequences of fMet peptides were designed according to motifs present at the N-termini of 15,125 specific bacterial proteins as annotated in UniProt. Peptides were chemically synthesised, purified, and verified by mass spectroscopy (MALDI-TOF) by commercial suppliers. […] Source, sequence and purity of each peptide are listed in Supplementary Data 1. Lyophilised peptides were routinely dissolved in the Ca^2+ imaging assay buffer C1 (130 mM NaCl, 10 mM HEPES, 5 mM KCl, 2 mM CaCl2, 5 mM glucose, pH 7.2) as 0.2–1 mM stock solutions and kept in small aliquots at −20 °C until use.

For orientation: EC50 means the concentration needed to bring the measured effect to its halfway point.

Consider “f-MKKFRWVVLGIVVVVCLLLWAQ [21-mer peptide]”, for which the “Fpr3 activation by MgrB 9-, 12- and 21-residue variants, in words” value in assay [1] is “failed to activate Fpr3”. In addition, the “signals in concentration-response, in words” value in assay [2] (Fpr3-transfected HEK293T, Fig. 2h) is given as “No signals were obtained”.

The molecule `CC[C@H](C)[C@H](NC(=O)[C@H](CO)NC(=O)[C@H](Cc1c[nH]c2ccccc12)NC(=O)[C@H](CCCCN)NC(=O)[C@H](Cc1ccccc1)NC(=O)[C@H](CCCCN)NC(=O)[C@H](CCCCN)NC(=O)[C@H](CCSC)NC=O)C(=O)O` (For-MKKFKWSI-OH) had an EC50 in assay [2] of 800 nM.

In assay [2], `CC[C@H](C)[C@H](NC(=O)CNC(=O)[C@H](CC(C)C)NC(=O)[C@@H](NC(=O)[C@@H](NC(=O)[C@H](Cc1c[nH]c2ccccc12)NC(=O)[C@H](CCCNC(=N)N)NC(=O)[C@H](Cc1ccccc1)NC(=O)[C@H](CCCCN)NC(=O)[C@H](CCCCN)NC(=O)[C@H](CCSC)NC=O)C(C)C)C(C)C)C(=O)N[C@H](C(=O)O)C(C)C` (For-MKKFRWVVLGIV-OH) displayed an EC50 of 210 nM.
